tested on: MDA-MB-453; experiment: normalised response (% of control), CellTiter-Glo; higher = more viable cells (100 = DMSO, 0 = benzethonium chloride kill control); conditions: incubation time: 72 h
Summary of the method: (§1)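 Compound was dispensed into 384-well plates at 5 concentrations in 10-fold steps spanning a 10,000-fold range specific to that compound. Breast cancer cell lines were added as 20 µl suspension and left for 72 h before CellTox Green fluorescence (485/520 nm) and then CellTiter-Glo luminescence, read after 10 min at room temperature. Each reported value is the normalised signal at one concentration, with 0.1 % DMSO set at 100 and a positive kill control at 0 on each plate.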

Going from CC1(C)NC(=O)N(c2ccc([N+](=O)[O-])c(C(F)(F)F)c2)C1=O [Nilutamide] (1 nM) to O=C1CCC(N2C(=O)c3ccccc3C2=O)C(=O)N1 (configuration not stated) [Thalidomide] (1 nM), the normalised response falls from 105% to 96.6%.

First: CO[C@H]1/C=C\C=C(/C)C(=O)NC2=CC(=O)C(NCCN(C)C)=C(C[C@@H](C)C[C@H](OC)[C@H](O)[C@@H](C)/C=C(\C)[C@@H]1OC(N)=O)C2=O [Alvespimycin] (0.1 nM)
Second: Cc1ccc(-n2nc(C(C)(C)C)cc2NC(=O)Nc2ccc(OCCN3CCOCC3)c3ccccc23)cc1 [Doramapimod] (1 nM)
The normalised response of the first is higher: 111% for the first, 95% for the second.

With O=P1(NCCCl)OCCCN1CCCl (configuration not stated) [Ifosfamide] (1 nM) the normalised response was 90.3%.

tested on: MCF-10A; experiment: as above; conditions: incubation time: 72 h
Summary of the method: as §1

Going from Cc1ccc(C(=O)N(CCCN)[C@@H](c2oc3cc(Cl)ccc3c(=O)c2Cc2ccccc2)C(C)C)cc1 (0.1 nM) to Clc1ccc(Nc2nnc(Cc3ccncc3)c3ccccc23)cc1 [Vatalanib] (1 nM), the normalised response rises from 90.2% to 110%.

First: COc1cc([C@@H]2c3cc4c(cc3[C@@H](O[C@@H]3O[C@@H]5CO[C@@H](C)O[C@H]5[C@H](O)[C@H]3O)[C@H]3COC(=O)[C@H]23)OCO4)cc(OC)c1O [Etoposide] (1 nM)
Second: CO[C@H]1/C=C\C=C(/C)C(=O)NC2=CC(=O)C(NCCN(C)C)=C(C[C@@H](C)C[C@H](OC)[C@H](O)[C@@H](C)/C=C(\C)[C@@H]1OC(N)=O)C2=O [Alvespimycin] (0.1 nM)
The normalised response of the first is higher: 110% for the first, 101% for the second.

Going from CC1(C)NC(=O)N(c2ccc([N+](=O)[O-])c(C(F)(F)F)c2)C1=O [Nilutamide] (1 nM) to O=C1CCC(N2C(=O)c3ccccc3C2=O)C(=O)N1 (configuration not stated) [Thalidomide] (1 nM), the normalised response falls from 106% to 104%.

Compared with Cc1ccc(-n2nc(C(C)(C)C)cc2NC(=O)Nc2ccc(OCCN3CCOCC3)c3ccccc23)cc1 [Doramapimod] (1 nM), O=P1(NCCCl)OCCCN1CCCl (configuration not stated) [Ifosfamide] (1 nM) is higher in normalised response: 78.8% for the first, 92.1% for the second.

tested on: BT-474; experiment: as above; conditions: incubation time: 72 h
Summary of the method: as §1

Compared with Cc1ccc(C(=O)N(CCCN)[C@@H](c2oc3cc(Cl)ccc3c(=O)c2Cc2ccccc2)C(C)C)cc1 (0.1 nM), Clc1ccc(Nc2nnc(Cc3ccncc3)c3ccccc23)cc1 [Vatalanib] (1 nM) is higher in normalised response: 97.8% for the first, 101% for the second.

Going from COc1cc([C@@H]2c3cc4c(cc3[C@@H](O[C@@H]3O[C@@H]5CO[C@@H](C)O[C@H]5[C@H](O)[C@H]3O)[C@H]3COC(=O)[C@H]23)OCO4)cc(OC)c1O [Etoposide] (1 nM) to CO[C@H]1/C=C\C=C(/C)C(=O)NC2=CC(=O)C(NCCN(C)C)=C(C[C@@H](C)C[C@H](OC)[C@H](O)[C@@H](C)/C=C(\C)[C@@H]1OC(N)=O)C2=O [Alvespimycin] (0.1 nM), the normalised response rises from 103% to 105%.

Compared with CC1(C)NC(=O)N(c2ccc([N+](=O)[O-])c(C(F)(F)F)c2)C1=O [Nilutamide] (1 nM), O=C1CCC(N2C(=O)c3ccccc3C2=O)C(=O)N1 (configuration not stated) [Thalidomide] (1 nM) is lower in normalised response: 108% for the first, 99.2% for the second.

Compared with Cc1ccc(-n2nc(C(C)(C)C)cc2NC(=O)Nc2ccc(OCCN3CCOCC3)c3ccccc23)cc1 [Doramapimod] (1 nM), O=P1(NCCCl)OCCCN1CCCl (configuration not stated) [Ifosfamide] (1 nM) is lower in normalised response: 95.5% for the first, 94.2% for the second.

tested on: Hs578T; experiment: as above; conditions: incubation time: 72 h
Summary of the method: as §1

Compared with Cc1ccc(C(=O)N(CCCN)[C@@H](c2oc3cc(Cl)ccc3c(=O)c2Cc2ccccc2)C(C)C)cc1 (0.1 nM), Clc1ccc(Nc2nnc(Cc3ccncc3)c3ccccc23)cc1 [Vatalanib] (1 nM) is lower in normalised response: 102% for the first, 101% for the second.

Going from COc1cc([C@@H]2c3cc4c(cc3[C@@H](O[C@@H]3O[C@@H]5CO[C@@H](C)O[C@H]5[C@H](O)[C@H]3O)[C@H]3COC(=O)[C@H]23)OCO4)cc(OC)c1O [Etoposide] (1 nM) to CO[C@H]1/C=C\C=C(/C)C(=O)NC2=CC(=O)C(NCCN(C)C)=C(C[C@@H](C)C[C@H](OC)[C@H](O)[C@@H](C)/C=C(\C)[C@@H]1OC(N)=O)C2=O [Alvespimycin] (0.1 nM), the normalised response falls from 105% to 91.2%.

Going from CC1(C)NC(=O)N(c2ccc([N+](=O)[O-])c(C(F)(F)F)c2)C1=O [Nilutamide] (1 nM) to O=C1CCC(N2C(=O)c3ccccc3C2=O)C(=O)N1 (configuration not stated) [Thalidomide] (1 nM), the normalised response falls from 101% to 98.2%.

Compared with Cc1ccc(-n2nc(C(C)(C)C)cc2NC(=O)Nc2ccc(OCCN3CCOCC3)c3ccccc23)cc1 [Doramapimod] (1 nM), O=P1(NCCCl)OCCCN1CCCl (configuration not stated) [Ifosfamide] (1 nM) is higher in normalised response: 95.5% for the first, 98.8% for the second.

tested on: HCC1937; experiment: as above; conditions: incubation time: 72 h
Summary of the method: as §1

Cc1ccc(C(=O)N(CCCN)[C@@H](c2oc3cc(Cl)ccc3c(=O)c2Cc2ccccc2)C(C)C)cc1 (0.1 nM) and Clc1ccc(Nc2nnc(Cc3ccncc3)c3ccccc23)cc1 [Vatalanib] (1 nM) are the same in normalised response: 101% for the first, 101% for the second.

Going from COc1cc([C@@H]2c3cc4c(cc3[C@@H](O[C@@H]3O[C@@H]5CO[C@@H](C)O[C@H]5[C@H](O)[C@H]3O)[C@H]3COC(=O)[C@H]23)OCO4)cc(OC)c1O [Etoposide] (1 nM) to CO[C@H]1/C=C\C=C(/C)C(=O)NC2=CC(=O)C(NCCN(C)C)=C(C[C@@H](C)C[C@H](OC)[C@H](O)[C@@H](C)/C=C(\C)[C@@H]1OC(N)=O)C2=O [Alvespimycin] (0.1 nM), the normalised response falls from 98.8% to 92.7%.

Compared with CC1(C)NC(=O)N(c2ccc([N+](=O)[O-])c(C(F)(F)F)c2)C1=O [Nilutamide] (1 nM), O=C1CCC(N2C(=O)c3ccccc3C2=O)C(=O)N1 (configuration not stated) [Thalidomide] (1 nM) is lower in normalised response: 98.4% for the first, 97.7% for the second.

Going from Cc1ccc(-n2nc(C(C)(C)C)cc2NC(=O)Nc2ccc(OCCN3CCOCC3)c3ccccc23)cc1 [Doramapimod] (1 nM) to O=P1(NCCCl)OCCCN1CCCl (configuration not stated) [Ifosfamide] (1 nM), the normalised response falls from 97.4% to 94.8%.

— the supplement of paper PMC4862054
